Measurements reported in patent US10988434B2, “Fragrance mixture” (SYMRISE AG, priority 2016, dated 2021).

Assay: Storage stability under drastic conditions
Assay type: physicochemical
Conditions: 60° C. and 5 bar pressure
Experimental: Example 15: Stability Studies
Mesaconic acid diethyl ester (MSDEE) was stored alone and as a component of various formulations for 24 and 72 hours respectively under drastic conditions at 60° C. and 5 bar pressure. The remaining amount of active substance was then determined.

CCOC(=O)/C=C(\C)C(=O)OCC [Mesaconic acid diethyl ester, (E)-2-methyl-but-2-endicarboxylic acid diethyl ester]
Storage stability: remaining amount of active substance (MSDEE) After 24 h (24 h): 98% | Storage stability: remaining amount of active substance (MSDEE) After 72 h (72 h): 98%
